The results in this text go back to patent publication US20110183978A1, “Phenylpyri(mi)dinylazoles” (Bayer CropScience AG, priority 2009, published 2011).

The nature of data set [1]: physchem.
Data set [2] deals with Fusarium graminearum. Kind of data set: microbe, parasite or virus in culture. In kind it is cell-based.
Data set [3] concerns Fusarium proliferatum. Description: Example I: production of fumonisin FB1 by Fusarium proliferatum (microtitre plates). In kind it is cell-based. Particulars: 120 h.
The subject of data set [4] is Alternaria solani. Description: Example M: in vivo test on Alternaria solani (leaf blotch disease/tomato/protective). The note with it: 168 h, tomato, protective, 500 ppm active substance, assessed 7 days after inoculation, read-out: % Wirkungsgrad (activity level). The method in brief:
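Alternaria solani infection on tomato scored 7 days post-inoculation. Before inoculation, young plants received a protective spray at the stated application dose; formulation was compound mixed with N,N-dimethylformamide and emulsifier, water-diluted.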

In data set [5] the test system is Sphaerotheca fuliginea. Description: Example L: in vivo test on Sphaerotheca fuliginea (powdery mildew on cucumber/protective). The note with it: Podosphaera fuliginea, 168 h, cucumber, protective, assessment 7 days after inoculation, read-out: % Wirkungsgrad. The method in brief:
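Young cucumber plants sprayed at stated dosage with compound in DMF/alkylaryl polyglycol ether emulsifier diluted in water; inoculated with S. fuliginea spores one day later. Kept in greenhouse at 70% relative humidity, 23° C; protective activity assessed 7 days after inoculation.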

The test system of data set [6] is Botrytis cinerea. Kind of data set: Example P: in vivo test on Botrytis cinerea (gray mould on bean/protective). The note with it: 48 h, bean, protective, 250 ppm active substance, assessed 2 days after inoculation, read-out: % Wirkungsgrad (activity level). How it is done:
Emulsifier: 1 part by weight alkylaryl polyglycol ethers For the preparation of a suitable active substance preparation, 1 part by weight of active substance is mixed with the stated quantities of solvent and emulsifier and the concentrate is diluted to the desired concentration with water. For the testing for protective activity, young plants are sprayed with the active substance preparation at the stated application dosage. After drying of the spray coating, 2 small pieces of agar with Botrytis cinerea growing on them are laid on every leaf. […] 2 days after the inoculation, the size of the infection blotches on the leaves is assessed.

In data set [7] the test system is Venturia inaequalis. Description: Example O: in vivo test on Venturia inaequalis (apple scab/protective). The note with it: 240 h, protective, assessment 10 days after inoculation, read-out: % Wirkungsgrad. The method, then:
Emulsifier: 1 part by weight alkylaryl polyglycol ethers For the preparation of a suitable active substance preparation, 1 part by weight of active substance is mixed with the stated quantities of solvent and emulsifier and the concentrate is diluted to the desired concentration with water. For the testing for protective activity, young plants are sprayed with the active substance preparation at the stated application dosage. […] 10 days after the inoculation, the assessment takes place.

The mark [8] stands for this setting: LogPA (logP of the stated pure compound or, in a mixture, of the main isomer, 1-substituted 3-aryl-1H-pyrazole).
[9] abbreviates: 72 h, read-out: % Inhibition des Pilzwachstums bei 50 μM.
Where [10] appears, read: 168 h, read-out: % Inhibition der DON/AcDON produktion bei 50 μM.
Setting [11] is: Fusarium proliferatum growth, OD 620, 5 days, read-out: % Inhibition des Pilzwachstums bei 50 μM.
[12] abbreviates: Fusarium proliferatum, 5 days at 20° C., HPLC-MS/MS, read-out: % Inhibition der FB1 produktion bei 50 μM.

Read-outs that look alike come from different tables or passages of the source.

One may read the chromatographic logP as lipophilicity estimated from chromatographic retention.

`CCC(=O)Nc1cc(-c2cn(CCOC)nc2-c2ccc(F)cc2)ccn1` [Compound 153, N-{4-[3-(4-fluorophenyl)-1-(2-methoxyethyl)-1H-pyrazol-4-yl]pyridin-2-yl}propanamide]: in data set [1] (setting [8]), the chromatographic logP is 1.61. Further, the inhibition at 50 µM in data set [2] (setting [9]) came out at 56%; in data set [2] (setting [10]), 100%; in data set [3] (setting [11]), 48%; in data set [3] (setting [12]) it was 100%. Besides, the pest or weed control at 500 ppm in data set [4] was determined as 90%.
In the case of `COCCn1cc(-c2ccnc(NC(=O)COC)c2)c(-c2ccc(F)cc2)n1` [Compound 163], the pest or weed control at 500 ppm in data set [5] and in data set [4] was 93% in each case. In data set [1] (setting [8]), the chromatographic logP was determined as 2.05. The inhibition at 50 µM in data set [2] (setting [9]) amounted to 100%; in data set [2] (setting [10]), 100%; in data set [3] (setting [11]), 72%; in data set [3] (setting [12]), 100%.
Regarding `CC(C)n1cc(-c2ccnc(NC(=O)c3cccs3)c2)c(-c2ccc(F)cc2)n1` [Compound 206], the pest or weed control at 500 ppm came to 94% in data set [5] and 90% in data set [4]. The pest or weed control at 250 ppm in data set [6] was found to be 100%. Besides, the pest or weed control at 100 ppm in data set [7] is 83%. For the same compound, the chromatographic logP in data set [1] (LogPA) was 3.14. Further, the values for the inhibition at 50 µM in data set [2] (setting [9]) and in data set [2] (setting [10]) were 75% and 99%, respectively.
Consider `CC(C)(O)C(=O)Nc1cc(-c2cn(CC(F)F)nc2-c2ccc(F)cc2)ccn1` [Compound 243], for which the pest or weed control at 500 ppm in data set [5] came to 95%; in data set [4], 100%. Moreover, the pest or weed control at 250 ppm in data set [6] turned out to be 75%. Besides, in data set [7], the pest or weed control at 100 ppm stood at 98%. The compound also yielded a chromatographic logP in data set [1] (LogPA) of 2.18.
The corresponding values for `CC(C)n1cc(-c2ccnc(NC(=O)c3ccccc3)c2)c(-c2ccc(F)cc2)n1` [Compound 205] are 100%, 95%, 100%, 91% and 3.2.
The corresponding values for `CCOCCn1cc(-c2ccncc2)c(-c2ccc(F)cc2)n1` [Compound 179] are 74%, 100%, 100%, 100% and 1.25.
For `N#CCn1cc(-c2ccncc2)c(-c2ccc(F)cc2)n1` [Compound 180], the pest or weed control at 250 ppm in data set [6] stood at 93%. The pest or weed control at 100 ppm in data set [7] was 96%. The compound also returned a chromatographic logP in data set [1] (LogPA) of 0.89.
As to `CCC(=O)Nc1cc(-c2c(-c3ccc(Cl)cc3F)nn(C)c2SC)ccn1` [Compound 195], in data set [1] (LogPA), the chromatographic logP was determined as 2.7. Also, the inhibition at 50 µM in data set [2] (setting [9]) amounted to 0%; in data set [2] (setting [10]), 80%; in data set [3] (setting [11]), 17%; in data set [3] (setting [12]), 100%. The pest or weed control at 500 ppm in data set [4] amounted to 80%.
With `CCC(C)n1cc(-c2ccnc(NC(=O)COC)c2)c(-c2ccc(F)cc2)n1` (stereo not drawn) [Compound 162], the pest or weed control at 500 ppm stood at 99% in data set [5] and 94% in data set [4]. Moreover, the pest or weed control at 250 ppm in data set [6] was 100%. The pest or weed control at 100 ppm in data set [7] stood at 96%. Besides, the chromatographic logP in data set [1] (setting [8]) is 2.95. The inhibition at 50 µM in data set [2] (setting [9]) and in data set [2] (setting [10]) was 99% throughout.
As for `CC(C)Cn1cc(-c2ccnc(NC(=O)C3CC3)c2)c(-c2ccc(F)cc2)n1` [Compound 165], the pest or weed control at 500 ppm in data set [5] is 86%; in data set [4], 95%. Besides, in data set [1] (setting [8]), the chromatographic logP is 2.6. Besides, the inhibition at 50 µM in data set [2] (setting [9]) was found to be 64%; in data set [2] (setting [10]) it was 100%; in data set [3] (setting [11]), 90%; in data set [3] (setting [12]) it was 100%.
Regarding `CC(C)n1cc(-c2ccnc(NC(=O)C(C)(C)O)c2)c(-c2ccc(F)cc2)n1` [Compound 209], the pest or weed control at 500 ppm in data set [5] was determined as 100%; in data set [4], 95%. The pest or weed control at 250 ppm in data set [6] amounted to 100%. Moreover, the pest or weed control at 100 ppm in data set [7] worked out at 89%. In data set [1] (LogPA), this compound gave a chromatographic logP of 2.42.
With `COCC(=O)Nc1cc(-c2cn(CC(F)F)nc2-c2ccc(F)cc2)ccn1` [Compound 216], the pest or weed control at 500 ppm in data set [5] was 89%; in data set [4], 95%. The compound also yielded a chromatographic logP in data set [1] (LogPA) of 2.27. Also, the inhibition at 50 µM turned out to be 97% in data set [3] (setting [11]) and 100% in data set [3] (setting [12]).
Turning to `CC(C)C(=O)Nc1cc(-c2cn(CC3CC3(Cl)Cl)nc2-c2ccc(F)cc2)ccn1` (stereo not drawn) [Compound 254], the pest or weed control at 500 ppm in data set [5] is 92%; in data set [4] it was 94%. In addition, the pest or weed control at 100 ppm in data set [7] worked out at 73%. Besides, the chromatographic logP in data set [1] (LogPA) was determined as 3.17. The inhibition at 50 µM in data set [2] (setting [9]) stood at 16%; in data set [2] (setting [10]) it was 99%.
Consider `CC(C)Cn1cc(-c2ccncn2)c(-c2cccc(Cl)c2)n1` [Compound 5], for which the figures for the pest or weed control at 500 ppm in data set [5] and in data set [4] were 70% and 90%, respectively. Further, in data set [1] (setting [8]), the chromatographic logP was 3.27. Also, the inhibition at 50 µM in data set [2] (setting [9]) worked out at 97%; in data set [2] (setting [10]), 100%; in data set [3] (setting [11]) it was 79%; in data set [3] (setting [12]), 100%.
Consider `CC(C)On1cc(-c2ccnc(NC(=O)C(C)C)c2)c(-c2ccc(F)cc2)n1` [Compound 272], for which the pest or weed control at 500 ppm in data set [5] and in data set [4] was 94% each time. Also, in data set [6], the pest or weed control at 250 ppm worked out at 100%. Also, in data set [7], the pest or weed control at 100 ppm was 89%. In data set [1] (LogPA), this compound displayed a chromatographic logP of 3.01. Moreover, the inhibition at 50 µM amounted to 33% in data set [2] (setting [9]) and 99% in data set [2] (setting [10]).
For the compound `COCC(=O)Nc1cc(-c2cn(CC3CC3)nc2-c2ccc(F)cc2)ccn1` [Compound 223], the pest or weed control at 500 ppm in data set [5] was determined as 91%; in data set [4], 90%. The compound further returned a chromatographic logP in data set [1] (LogPA) of 2.61. The inhibition at 50 µM is 99% in data set [2] (setting [9]), 97% in data set [2] (setting [10]), 96% in data set [3] (setting [11]) and 100% in data set [3] (setting [12]).
With `Cc1nccc(-c2cn(C3CCCCO3)nc2-c2ccc(F)cc2)n1` (stereo not drawn) [Compound 29], the pest or weed control at 500 ppm came to 70% in data set [5] and 78% in data set [4]. For the same compound, the chromatographic logP in data set [1] (setting [8]) is 2.53. The inhibition at 50 µM in data set [3] (setting [11]) came out at 34%; in data set [3] (setting [12]), 82%.
`CCNC(=O)Nc1cc(-c2cn(C(C)C)nc2-c2ccc(F)cc2)ccn1` [Compound 211]: the pest or weed control at 500 ppm in data set [5] is 93%; in data set [4], 70%. Also, the pest or weed control at 250 ppm in data set [6] came to 100%. Moreover, in data set [7], the pest or weed control at 100 ppm was 92%. The chromatographic logP in data set [1] (LogPA) came to 2.02. The results for the inhibition at 50 µM in data set [2] (setting [9]) and in data set [2] (setting [10]) were 16% and 99%, respectively.
As to `CCC(=O)Nc1cc(-c2cn(CC3CC3(Cl)Cl)nc2-c2ccc(F)cc2)ccn1` (stereo not drawn) [Compound 249], the values for the pest or weed control at 500 ppm in data set [5] and in data set [4] were 92% and 94%, respectively. In addition, the pest or weed control at 250 ppm in data set [6] was 100%. Also, the pest or weed control at 100 ppm in data set [7] was determined as 96%. This compound also came in with a chromatographic logP in data set [1] (LogPA) of 2.8.
The corresponding values for `CC(=O)Nc1cc(-c2cn(CC(F)F)nc2-c2ccc(F)cc2)ccn1` [Compound 242] are 97%, 88%, 99%, 89% and 1.74.
For the compound `COCC(=O)Nc1cc(-c2cn(CC(C)C)nc2-c2ccc(F)cc2)ccn1` [Compound 166], the pest or weed control at 500 ppm in data set [5] turned out to be 97%; in data set [4] it was 95%. In addition, the chromatographic logP in data set [1] (LogPA) is 2.96. Moreover, the inhibition at 50 µM worked out at 84% in data set [2] (setting [9]), 100% in data set [2] (setting [10]), 98% in data set [3] (setting [11]) and 100% in data set [3] (setting [12]).
Take `CCC(=O)Nc1cc(-c2cn(Cc3ccccc3F)nc2-c2ccc(F)cc2)ccn1` [Compound 213]: the pest or weed control at 500 ppm in data set [5] worked out at 74%; in data set [4], 90%. For the same compound, in data set [6], the pest or weed control at 250 ppm was determined as 91%. This compound yielded a chromatographic logP in data set [1] (LogPA) of 2.69. The inhibition at 50 µM in data set [2] (setting [9]) turned out to be 0%; in data set [2] (setting [10]) it was 100%; in data set [3] (setting [11]), 56%; in data set [3] (setting [12]), 100%.
